The results in this text go back to patent US10457687B2, “Aminoacid derivatives, a process for their preparation and pharmaceutical compositions containing them” (LES LABORATOIRES SERVIER, priority 2015, dated 2019).

For one test, the target named is Mcl-1 protein (Homo sapiens, UniProt Q07820). Briefly: Inhibition of Mcl-1 by the fluorescence polarisation technique (Method 1 or Method 2). As to conditions: for IC50: fluorescence polarisation, Fluorescein labelled ligand, Method 1 (not underlined) or Method 2 (underlined), read-out: IC50 (μM) Mcl-1 FP. The class given is binding. A digest of the protocol:
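Binding measured by FP, with Mcl-1 protein and fluorescein-labelled ligand mixed with compounds in an 11-point series at 5% final DMSO. Method 2 used 10 nM each of protein and ligand in phosphate buffer (20 mM Na2HPO4, 1 mM EDTA, 50 mM NaCl, pH 7.4); Method 1 used 5 nM protein, 1 nM ligand in HEPES buffer (10 mM HEPES, 150 mM NaCl, 0.05% Tween 20, pH 7.4).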

For test [1], the system named is H929 multiple myeloma tumour line. Briefly: In vitro cytotoxicity, MTT assay, 48 hours. The class given is cell-based. To be noted: H929 cells, 48 hours exposure, cell viability. The procedure: The cytotoxicity studies were carried out on the H929 multiple myeloma tumour line.
The cells are distributed onto microplates and exposed to the test compounds for 48 hours.

Where [2] appears, read: partial inhibitors, @ 10 μM test compound.

Molecules are shown by their SMILES.

Mcl-1 protein, sequence (Q07820 whole entry): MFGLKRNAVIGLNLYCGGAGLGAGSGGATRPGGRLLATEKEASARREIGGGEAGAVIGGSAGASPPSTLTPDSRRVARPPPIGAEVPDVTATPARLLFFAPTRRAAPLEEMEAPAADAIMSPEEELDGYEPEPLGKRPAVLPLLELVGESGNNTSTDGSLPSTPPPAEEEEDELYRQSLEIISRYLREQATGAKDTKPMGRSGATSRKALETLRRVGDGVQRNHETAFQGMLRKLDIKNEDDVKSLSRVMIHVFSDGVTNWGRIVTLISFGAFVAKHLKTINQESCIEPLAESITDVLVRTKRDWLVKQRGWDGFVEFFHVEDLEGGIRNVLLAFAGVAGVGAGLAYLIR

Consider `Cc1c(-c2c(-c3ccco3)sc3ncnc(N[C@H](Cc4ccccc4Cl)C(=O)O)c23)ccc(OCCN2CCN(C)CC2)c1Cl` (single isomer, unassigned) [Example 10, 2-chloro-N-[5-{3-chloro-2-methyl-4-[2-(4-methylpiperazin-1-yl)ethoxy]phenyl}-6-(furan-2-yl)thieno[2,3-d]pyrimidin-4-yl]-D-phenylalanine], for which the inhibition at 3.3 µM on Mcl-1 protein (partial inhibitors, @ 3.3 μM test compound, read-out: percentage fluorescence polarisation inhibition, Mcl-1 FP) amounted to 72.8%. In test [1] (Homo sapiens, NCI-H929), the 50% inhibitory concentration (IC50) is > 3750 nM.

As for `CC#Cc1sc2ncnc(NC(Cc3ccccc3OCc3ccnc(CCOC)n3)C(=O)O)c2c1-c1ccc(OCCN2CCN(C)CC2)c(Cl)c1C` [Example 41, N-[(5Sa)-5-{3-chloro-2-methyl-4-[2-(4-methylpiperazin-1-yl)ethoxy]phenyl}-6-(prop-1-yn-1-yl)thieno[2,3-d]pyrimidin-4-yl]-2-{[2-(2-methoxyethyl)pyrimidin-4-yl]methoxy}-D-phenylalanine], the IC50 at Mcl-1 protein was found to be 0.006 µM; in test [1] (Homo sapiens, NCI-H929), 7.38 nM.

For the compound `Cc1c(-c2c(-c3ccc(F)o3)sc3ncnc(NC(Cc4ccccc4OCC(F)(F)F)C(=O)O)c23)ccc(OCCN2CCN(C)CC2)c1Cl` [Example 17, N-[(5Sa)-5-{3-chloro-2-methyl-4-[2-(4-methylpiperazin-1-yl)ethoxy]phenyl}-6-(5-fluorofuran-2-yl)thieno[2,3-d]pyrimidin-4-yl]-2-(2,2,2-trifluoroethoxy)-D-phenylalanine], the IC50 on Mcl-1 protein came to 0.057 µM; in test [1] (Homo sapiens, NCI-H929), 294 nM.

On to `Cc1c(-c2c(-c3ccsc3)sc3ncnc(N[C@H](Cc4ccccn4)C(=O)O)c23)ccc(OCCN2CCN(C)CC2)c1Cl` [Example 30, N-[(5Ra)-5-{3-chloro-2-methyl-4-[2-(4-methylpiperazin-1-yl)ethoxy]phenyl}-6-(thiophen-3-yl)thieno[2,3-d]pyrimidin-4-yl]-3-pyridin-2-yl-D-alanine], for which, at Mcl-1 protein (setting [2]), the “percentage fluorescence polarisation inhibition, Mcl-1 FP” value came out at 68.2% @ 10 μM. In test [1], the IC50 is > 3750 nM.

Consider `COc1ccccc1C[C@@H](Nc1ncnc2sc(-c3ccc(F)cc3)c(-c3ccc(OCCN4CCN(C)CC4)c(Cl)c3C)c12)C(=O)O` [Example 2, N-[(5Ra)-5-{3-chloro-2-methyl-4-[2-(4-methylpiperazin-1-yl)ethoxy]phenyl}-6-(4-fluorophenyl)thieno[2,3-d]pyrimidin-4-yl]-2-methoxy-D-phenylalanine], for which, at Mcl-1 protein (setting [2]), the “percentage fluorescence polarisation inhibition, Mcl-1 FP” value turned out to be 56.9% @ 10 μM. Also, in test [1], the IC50 is > 600 nM.

In the case of `COc1ccccc1-c1nccc(COc2ccccc2C[C@@H](Nc2ncnc3sc(-c4ccc(F)cc4)c(-c4c(C)c(Cl)c(OCCN5CCN(C)CC5)c(Cl)c4C)c23)C(=O)O)n1` [Example 270, N-[5-{3,5-dichloro-2,6-dimethyl-4-[2-(4-methylpiperazin-1-yl)ethoxy]phenyl}-6-(4-fluorophenyl)thieno[2,3-d]pyrimidin-4-yl]-2-{[2-(2-methoxyphenyl)pyrimidin-4-yl]methoxy}-D-phenylalanine], the half-maximal inhibitory concentration (IC50) at Mcl-1 protein worked out at 0.055 µM; in test [1] (Homo sapiens, NCI-H929), 522 nM.

Take `CCCCn1nccc1COc1ccccc1C[C@@H](Nc1ncnc2sc(-c3ccc(F)o3)c(-c3ccc(OCCN4CCN(C)CC4)c(Cl)c3C)c12)C(=O)O` [Example 23, 2-[(1-butyl-1H-pyrazol-5-yl)methoxy]-N-[(5Ra)-5-{3-chloro-2-methyl-4-[2-(4-methylpiperazin-1-yl)ethoxy]phenyl}-6-(5-fluorofuran-2-yl)thieno[2,3-d]pyrimidin-4-yl]-D-phenylalanine]: the “percentage fluorescence polarisation inhibition, Mcl-1 FP” value at Mcl-1 protein (partial inhibitors, @ 1 μM test compound) amounted to 41.27% @ 1 μM. In test [1], the IC50 was > 600 nM.

On to `COC(=O)c1oc(-c2sc3ncnc(NC(Cc4ccccc4OC)C(=O)O)c3c2-c2ccc(OCCN3CCN(C)CC3)c(Cl)c2C)cc1C` [Example 65, N-((5Sa)-5-{3-chloro-2-methyl-4-[2-(4-methylpiperazin-1-yl)ethoxy]phenyl}-6-[5-(methoxycarbonyl)-4-methylfuran-2-yl]thieno[2,3-d]pyrimidin-4-yl)-2-methoxy-D-phenylalanine], for which the IC50 at Mcl-1 protein is 0.345 µM; in test [1] (Homo sapiens, NCI-H929), ≥ 2780 nM.

Turning to `Cc1c(-c2c(-c3ccc(F)o3)sc3ncnc(NC(Cc4ccccc4OCc4ccnn4C)C(=O)O)c23)ccc(OCCN2CCN(C)CC2)c1Cl` [Example 20, N-[(5Sa)-5-{3-chloro-2-methyl-4-[2-(4-methylpiperazin-1-yl)ethoxy]phenyl}-6-(5-fluorofuran-2-yl)thieno[2,3-d]pyrimidin-4-yl]-2-[(1-methyl-1H-pyrazol-5-yl)methoxy]-D-phenylalanine], the half-maximal inhibitory concentration (IC50) at Mcl-1 protein is 0.026 µM; in test [1] (Homo sapiens, NCI-H929), 78.6 nM.

As to `CC#Cc1sc2ncnc(NC(Cc3ccccc3OCc3ccnc(OCC(F)(F)F)n3)C(=O)O)c2c1-c1ccc(OCCN(C)C)c(Cl)c1C` [Example 48, N-[(5Sa)-5-{3-chloro-4-[2-(dimethylamino)ethoxy]-2-methylphenyl}-6-(prop-1-yn-1-yl)thieno[2,3-d]pyrimidin-4-yl]-2-{[2-(2,2,2-trifluoroethoxy)pyrimidin-4-yl]methoxy}-D-phenylalanine], the half-maximal inhibitory concentration (IC50) on Mcl-1 protein was determined as 0.007 µM; in test [1] (Homo sapiens, NCI-H929), 16.1 nM.

In the case of `CC#Cc1sc2ncnc(NC(Cc3ccccc3OCc3ccnn3CC(F)(F)F)C(=O)O)c2c1-c1ccc(OCCN2CCN(C)CC2)c(Cl)c1C` [Example 42, N-[(5Sa)-5-{3-chloro-2-methyl-4-[2-(4-methylpiperazin-1-yl)ethoxy]phenyl}-6-(prop-1-yn-1-yl)thieno[2,3-d]pyrimidin-4-yl]-2-{[1-(2,2,2-trifluoroethyl)-1H-pyrazol-5-yl]methoxy}-D-phenylalanine], the concentration for half-maximal inhibition (IC50) at Mcl-1 protein worked out at 0.01 µM; in test [1] (Homo sapiens, NCI-H929) it was 61 nM.

On to `CC(=O)c1sc2ncnc(NC(Cc3ccccc3)C(=O)O)c2c1-c1cccc2ccccc12` [Example 199, N-[6-acetyl-(5Sa)-5-(naphthalen-1-yl)thieno[2,3-d]pyrimidin-4-yl]-D-phenylalanine], for which the IC50 on Mcl-1 protein was found to be 0.298 µM.

As to `CCc1sc2ncnc(N[C@H](Cc3cn(C)cn3)C(=O)O)c2c1-c1cccc2ccccc12` [Example 194, N-[6-ethyl-5-(naphthalen-1-yl)thieno[2,3-d]pyrimidin-4-yl]-1-methyl-D-histidine], the IC50 on Mcl-1 protein was 1.75 µM.

Take `CCc1sc2ncnc(NC(Cc3ccccc3OCC(=O)N(C)C)C(=O)O)c2c1-c1cccc(Cl)c1C` [Example 142, N-[(5Sa)-5-(3-chloro-2-methylphenyl)-6-ethylthieno[2,3-d]pyrimidin-4-yl]-2-[2-(dimethylamino)-2-oxoethoxy]-D-phenylalanine]: the 50% inhibitory concentration (IC50) at Mcl-1 protein worked out at 0.335 µM.

Turning to `CCc1sc2ncnc(NC(Cc3ccccc3)C(=O)O)c2c1-c1cccc2c1c(Cl)cn2CCCN1CCN(C)CC1` [Example 240, N-((5Sa)-5-{3-chloro-1-[3-(4-methylpiperazin-1-yl)propyl]-1H-indol-4-yl}-6-ethyl-thieno[2,3-d]pyrimidin-4-yl)-D-phenylalanine], the concentration for half-maximal inhibition (IC50) on Mcl-1 protein came out at 0.958 µM.

In the case of `CCc1sc2ncnc(N[C@H](Cc3ccccc3)C(=O)O)c2c1-c1cccc2ccccc12` [Example 79, N-[6-ethyl-5-(naphthalen-1-yl)thieno[2,3-d]pyrimidin-4-yl]-D-phenylalanine], at Mcl-1 protein, the IC50 worked out at 0.429 µM.
